In article PMC8286840, “Identifying SARS-CoV-2 antiviral compounds by screening for small molecule inhibitors of Nsp3 papain-like protease” (Biochemical Journal, 2021):
Counter-ions that a name gives are not always drawn. Like-named read-outs stand apart in the source and are kept apart here.

What was measured:
[1] = target: T1, SARS-CoV-2 PLpro (nsp3 1564–1878) (Severe acute respiratory syndrome coronavirus 2, UniProt P0DTD1); assay: biochemical; parameters: FRET-quenched peptide (Pro3) cleavage by PLpro, 10 min pre-incubation, slope over 20 min, normalised to no-compound control; settings: low concentration screen, read-out: % of control remaining
[2] = target: T1, SARS-CoV-2 PLpro (nsp3 1564–1878); assay: biochemical; parameters: FRET-quenched peptide (Pro3) cleavage by PLpro, 10 min pre-incubation, slope over 20 min, normalised to no-compound control; settings: high concentration screen, read-out: % of control remaining

How did the remaining activity at 1.25 µM ([1]; Well no.=6584) turn out when `CC(C)S(=O)(=O)c1ccc2nccc(Nc3ccc4scnc4c3)c2c1` [GSK-872] was run?
The remaining activity at 1.25 µM was 96.3%.

What about the remaining activity at 3.75 µM ([2]; Well no.=6584) of the same compound?
Its remaining activity at 3.75 µM is 108%.

What does the source list for `CC(=O)OCC(=O)[C@@]1(O)CC[C@H]2[C@@H]3CCC4=CC(=O)CC[C@]4(C)[C@H]3C(=O)C[C@@]21C` [Cortisone (acetate)]?
remaining activity at 1.25 µM ([1]; Well no.=6321): 106%; remaining activity at 3.75 µM ([2]; Well no.=6321): 105%

What does the source list for `Cc1cc(/C=N/NC(=O)c2cc(Br)c(O)c(Br)c2)c(C)n1-c1cccc([N+](=O)[O-])c1` [Kinesore]?
remaining activity at 1.25 µM ([1]; Well no.=7784): 93.8%; remaining activity at 3.75 µM ([2]; Well no.=7784): 91.7%

With `COc1cc2ncnc(Nc3ccc(OCc4ccccc4)cc3)c2cc1OC` [EGFR/ErbB-2 Inhibitor] as the compound, how does the remaining activity at 1.25 µM ([1]; Well no.=2373) read?
The remaining activity at 1.25 µM was 95.9%.

And the remaining activity at 3.75 µM ([2]; Well no.=2373)?
Its remaining activity at 3.75 µM is 97.2%.

For `O=C(O)C(Cc1c[nH]c2ccccc12)N1C(=O)c2ccccc2C1=O` (stereo not shown) [RG108], which remaining activity at 1.25 µM ([1]; Well no.=4791) is on record?
Its remaining activity at 1.25 µM is 103%.

What about the remaining activity at 1.25 µM ([1]; Well no.=8370) of the same compound?
The remaining activity at 1.25 µM was 88.9%.

And the remaining activity at 3.75 µM ([2]; Well no.=4791)?
The remaining activity at 3.75 µM was 104%.

What about the remaining activity at 3.75 µM ([2]; Well no.=8370) of the same compound?
The remaining activity at 3.75 µM was 85.1%.

With `O=C(O)c1ccc(-c2c[nH]c3ncc(-c4ccccc4)cc23)cc1C1CCCC1` [GSK 650394 - 2-Cyclopentyl-4-(5-phenyl-1H-pyrrolo[2,3-b]pyridin-3-yl-benzoic acid] as the compound, how does the remaining activity at 1.25 µM ([1]; Well no.=2676) read?
Its remaining activity at 1.25 µM is 96.9%.

What about the remaining activity at 3.75 µM ([2]; Well no.=2676) of the same compound?
The remaining activity at 3.75 µM was 99.7%.

Which remaining activity at 1.25 µM ([1]; Well no.=4348) does the source give for `CCCCCC/C=C\CCCCCCCCCC(=O)O` [11(Z)-Octadecenoic acid] here?
The remaining activity at 1.25 µM was 102%.

What about the remaining activity at 3.75 µM ([2]; Well no.=4348) of the same compound?
Its remaining activity at 3.75 µM is 94%.

What does the source list for `CNc1cccc(NC(=O)N[C@@H]2N=C(c3ccccn3)c3ccccc3N(CC(=O)C(C)(C)C)C2=O)c1` [Sograzepide]?
remaining activity at 1.25 µM ([1]; Well no.=8322): 94.5%; remaining activity at 3.75 µM ([2]; Well no.=8322): 93%

With `O=c1c(O)c(-c2ccc(O)cc2)oc2cc(O)cc(O)c12` [Kaempferol] as the compound, how does the remaining activity at 1.25 µM ([1]; Well no.=3426) read?
The remaining activity at 1.25 µM was 89.4%.

And the remaining activity at 1.25 µM ([1]; Well no.=6246)?
The remaining activity at 1.25 µM was 105%.

What about the remaining activity at 3.75 µM ([2]; Well no.=3426) of the same compound?
Its remaining activity at 3.75 µM is 90.3%.

What about the remaining activity at 3.75 µM ([2]; Well no.=6246) of the same compound?
Its remaining activity at 3.75 µM is 109%.

For `O=c1n(CCCN2CCN(c3cccc(Cl)c3)CC2)nc2ccccn12` [Trazodone hydrochloride], which remaining activity at 1.25 µM ([1]; Well no.=1339) is on record?
Its remaining activity at 1.25 µM is 102%.

And the remaining activity at 3.75 µM ([2]; Well no.=1339)?
Its remaining activity at 3.75 µM is 104%.

With `Nc1ccn(C[C@@H](CO)OCP(=O)(O)O)c(=O)n1` [Cidofovir (Vistide)] as the compound, how does the remaining activity at 1.25 µM ([1]; Well no.=5251) read?
Its remaining activity at 1.25 µM is 98.3%.

What about the remaining activity at 3.75 µM ([2]; Well no.=5251) of the same compound?
The remaining activity at 3.75 µM was 101%.

Which remaining activity at 1.25 µM ([1]; Well no.=2668) does the source give for `COc1cc2ncn(-c3cc(OCc4ccccc4C(F)(F)F)c(C(N)=O)s3)c2cc1OC` [GW 843682X - 5-(5,6-Dimethoxy-1H-benzimidazol-1-yl)-3-[[2-(trifluoromethyl)phenyl]methoxy]-2-thiophenecarboxamide] here?
Its remaining activity at 1.25 µM is 92.6%.

What about the remaining activity at 3.75 µM ([2]; Well no.=2668) of the same compound?
Its remaining activity at 3.75 µM is 96.9%.

For `CC(C)(C)Cn1c(N)nc2ccc(-c3[nH]c(C(C)(C)C)nc3-c3ccc(F)cc3)nc21` [LY2228820], which remaining activity at 1.25 µM ([1]; Well no.=4915) is on record?
Its remaining activity at 1.25 µM is 98.6%.

And the remaining activity at 3.75 µM ([2]; Well no.=4915)?
Its remaining activity at 3.75 µM is 99.6%.

Which results are given for `Cc1ccc2c(c1CCC(=O)O)CC[C@@H](NS(=O)(=O)c1ccc(Cl)cc1)C2` [Terutroban]?
remaining activity at 1.25 µM ([1]; Well no.=7149): 93.3%; remaining activity at 3.75 µM ([2]; Well no.=7149): 94.2%

Which results are given for `CCOC(=O)[C@H](CCc1ccccc1)N[C@@H](C)C(=O)N1CCC[C@H]1C(=O)O` [Enalapril]?
remaining activity at 1.25 µM ([1]; Well no.=2024): 93.5%; remaining activity at 3.75 µM ([2]; Well no.=2024): 102%

Which results are given for `CCCCCN(C)CCC(O)(P(=O)(O)O)P(=O)(O)O` [Ibandronate sodium salt]?
remaining activity at 1.25 µM ([1]; Well no.=6031): 96.1%; remaining activity at 3.75 µM ([2]; Well no.=6031): 91.1%

`O=S(=O)(NCCNC/C=C/c1ccc(Br)cc1)c1cccc2cnccc12` [H-89, Dihydrochloride] was tested. Which remaining activity at 1.25 µM ([1]; Well no.=2610) did it give?
Its remaining activity at 1.25 µM is 88.8%.

And the remaining activity at 3.75 µM ([2]; Well no.=2610)?
The remaining activity at 3.75 µM was 86.3%.

`Cc1ccc(C(=O)Nc2ccc(S(=O)(=O)O)c3cc(S(=O)(=O)O)cc(S(=O)(=O)O)c23)cc1NC(=O)c1cccc(NC(=O)Nc2cccc(C(=O)Nc3cc(C(=O)Nc4ccc(S(=O)(=O)O)c5cc(S(=O)(=O)O)cc(S(=O)(=O)O)c45)ccc3C)c2)c1` [Suramin] was tested. Which remaining activity at 1.25 µM ([1]; Well no.=1622) did it give?
The remaining activity at 1.25 µM was 99.2%.

What about the remaining activity at 3.75 µM ([2]; Well no.=1622) of the same compound?
The remaining activity at 3.75 µM was 96.7%.

`CN(C)CCCN1c2ccccc2Sc2ccccc21` [Promazine hydrochloride] was tested. Which remaining activity at 1.25 µM ([1]; Well no.=1155) did it give?
The remaining activity at 1.25 µM was 104%.

And the remaining activity at 3.75 µM ([2]; Well no.=1155)?
Its remaining activity at 3.75 µM is 102%.

`CCCCC/C=C\C[C@@H](O)/C=C/C=C/C=C\[C@@H](O)CCCC(=O)O` [Leukotriene B4] was tested. Which remaining activity at 1.25 µM ([1]; Well no.=4423) did it give?
The remaining activity at 1.25 µM was 101%.

What about the remaining activity at 3.75 µM ([2]; Well no.=4423) of the same compound?
Its remaining activity at 3.75 µM is 97.4%.

Which remaining activity at 1.25 µM ([1]; Well no.=2931) does the source give for `O=C(NCCCNc1nc(Nc2cccc(NC(=O)N3CCCC3)c2)ncc1I)c1cccs1` [BX795] here?
Its remaining activity at 1.25 µM is 99%.

What about the remaining activity at 3.75 µM ([2]; Well no.=2931) of the same compound?
The remaining activity at 3.75 µM was 99.2%.

What does the source list for `CN1CCN2c3ncccc3Cc3ccccc3C2C1` (stereo not shown) [Mirtazapine]?
remaining activity at 1.25 µM ([1]; Well no.=6564): 106%; remaining activity at 3.75 µM ([2]; Well no.=6564): 106%

For `COC[C@@]12CC[C@H](OC)[C@@]34[C@@H]5C[C@@]6(O)[C@H](OC(=O)c7ccccc7)[C@@H]5[C@@](OC(C)=O)([C@@H]([C@H](OC)[C@H]13)[C@H]4N(C)C2)[C@@H](O)[C@@H]6OC` [Hypaconitine], which remaining activity at 1.25 µM ([1]; Well no.=6450) is on record?
The remaining activity at 1.25 µM was 88.9%.

And the remaining activity at 3.75 µM ([2]; Well no.=6450)?
Its remaining activity at 3.75 µM is 87.8%.

What does the source list for `COc1cc2ncc(-c3ccccc3)nc2cc1OC` [Tyrphostin AG 1296]?
remaining activity at 1.25 µM ([1]; Well no.=1477): 97.5%; remaining activity at 3.75 µM ([2]; Well no.=1477): 97.9%

How did the remaining activity at 1.25 µM ([1]; Well no.=6521) turn out when `CC(C)COc1ccc(CNC(=O)N(Cc2ccc(F)cc2)C2CCN(C)CC2)cc1` [Pimavanserin] was run?
Its remaining activity at 1.25 µM is 95%.

And the remaining activity at 3.75 µM ([2]; Well no.=6521)?
The remaining activity at 3.75 µM was 95.9%.

What does the source list for `C[C@H]1c2cccc(O)c2C(=O)C2=C(O)[C@]3(O)C(=O)C(C(N)=O)=C(O)[C@@H](N(C)C)[C@@H]3[C@@H](O)[C@@H]21` [Doxycycline hydrochloride]?
remaining activity at 1.25 µM ([1]; Well no.=396): 105%; remaining activity at 3.75 µM ([2]; Well no.=396): 108%

How did the remaining activity at 1.25 µM ([1]; Well no.=4047) turn out when `O=C(O)c1ccc(O)c(O)c1` [Protocatechuic acid] was run?
The remaining activity at 1.25 µM was 99.6%.

And the remaining activity at 3.75 µM ([2]; Well no.=4047)?
The remaining activity at 3.75 µM was 101%.

For `O=c1c(-c2ccc(O)cc2)coc2cc(O[C@@H]3O[C@H](CO)[C@@H](O)[C@H](O)[C@H]3O)ccc12` [Daidzin], which remaining activity at 1.25 µM ([1]; Well no.=3249) is on record?
The remaining activity at 1.25 µM was 103%.

And the remaining activity at 3.75 µM ([2]; Well no.=3249)?
The remaining activity at 3.75 µM was 102%.

How did the remaining activity at 1.25 µM ([1]; Well no.=3179) turn out when `C[C@@H]1C[C@@H]([C@H](O)CC2CC(=O)NC(=O)C2)C(=O)[C@@H](C)C1` [Cycloheximide] was run?
The remaining activity at 1.25 µM was 98.2%.

What about the remaining activity at 3.75 µM ([2]; Well no.=3179) of the same compound?
The remaining activity at 3.75 µM was 98.5%.

Which results are given for `CC(C)NNC(=O)c1ccncc1` [Iproniazid phosphate]?
remaining activity at 1.25 µM ([1]; Well no.=775): 104%; remaining activity at 3.75 µM ([2]; Well no.=775): 105%

Which results are given for `CCn1cc(-c2ccc3c(c2)CCN3C(=O)Cc2cccc(OC(F)(F)F)c2)c2c(N)ncnc21` [RIPK1-IN-7]?
remaining activity at 1.25 µM ([1]; Well no.=6824): 94.8%; remaining activity at 3.75 µM ([2]; Well no.=6824): 94.4%

`C[C@@H](Oc1cc(-n2cnc3ccc(CN4CCN(C)CC4)cc32)sc1C(N)=O)c1ccccc1C(F)(F)F` [GSK461364] was tested. Which remaining activity at 1.25 µM ([1]; Well no.=5146) did it give?
The remaining activity at 1.25 µM was 102%.

What about the remaining activity at 3.75 µM ([2]; Well no.=5146) of the same compound?
The remaining activity at 3.75 µM was 103%.

What does the source list for `Clc1ccc(COC(Cn2ccnc2)c2ccc(Cl)cc2Cl)c(Cl)c1` (stereo not shown) [Miconazole nitrate]?
remaining activity at 1.25 µM ([1]; Well no.=4666): 102%; remaining activity at 3.75 µM ([2]; Well no.=4666): 103%
